Here are results for 18 compounds from patent US11999727B2 (Tango Therapeutics, Inc., priority 2020, dated 2024).

In experiment [1] the target is T1, PRMT5 (Homo sapiens, UniProt O14744).
T1 construct: purchased Viva (custom protein)
Nature of the experiment: PRMT5 biochemical IC50 assay with SAM as cofactor. Conditions: PRMT5, SAM as cofactor; read-out: SAM IC50.

The target of experiment [2] is T1, PRMT5. Nature of the experiment: PRMT5 biochemical IC50 assay with no cofactor. Conditions: PRMT5, no cofactor; read-out: No Cofactor/rel IC50. An excerpt:
Table 1 indicates IC50 values (μM) against PRMT5 for exemplary compounds in the presence of SAM as cofactor, with no cofactor, and with MTA as cofactor, respectively (columns 4-6). […] Ki values can be calculated from the IC50 values as described in the Examples section. As detailed in the Examples section, for the assay performed in the presence of SAM, IC50=Ki×1.5 (Ki=IC50/1.5).

Experiment [3] has as its target T1, PRMT5. Nature of the experiment: PRMT5 biochemical IC50 assay with MTA as cofactor. Particulars: PRMT5, MTA as cofactor; read-out: MTA IC50.
Experiment [4] relates to HAP1 MTAP-intact cell line. Briefly: SDMA in-cell western assay, HAP1 MTAP-intact. In kind it is cell-based. Conditions: Homo sapiens, HAP1, SDMA in-cell western, HAP1 MTAP-intact; read-out: MTAP HAP1 intact IC50. In a few lines: (§1)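 IC50 values come from SDMA signal quantified by in-cell western in two HAP1 lines, one with native MTAP levels and one lacking MTAP.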
Experiment [5] concerns HAP1 MTAP-deleted cell line. Nature of the experiment: SDMA in-cell western assay, HAP1 MTAP-deleted. In kind it is cell-based. Particulars: for IC50: Homo sapiens, HAP1, SDMA in-cell western, HAP1 MTAP-deleted, read-out: HAP 1 MTAP deleted IC50; for MTAP intact/deleted ratio: IC50 ratio HAP1 MTAP-intact / HAP1 MTAP-deleted, SDMA in-cell western. In a few lines:
as §1

For experiment [6], the system named is HAP1 MTAP-deleted cell line. Briefly: Viability assay, MTAP-deleted cell line. In kind it is cell-based. Particulars: Homo sapiens, HAP1, viability IC50, MTAP-deleted cell line; read-out: HAP1 MTAP deleted viability. An excerpt:
Table 1 additionally indicates IC50 values in a viability assay for the MTAP-deleted cell line (column 10), indicating the effect of treatment with compound on cell survival.

Each structure is given as a SMILES string. A value given as a limit tells only on which side of the number the result lay.

T1 sequence (O14744 whole entry): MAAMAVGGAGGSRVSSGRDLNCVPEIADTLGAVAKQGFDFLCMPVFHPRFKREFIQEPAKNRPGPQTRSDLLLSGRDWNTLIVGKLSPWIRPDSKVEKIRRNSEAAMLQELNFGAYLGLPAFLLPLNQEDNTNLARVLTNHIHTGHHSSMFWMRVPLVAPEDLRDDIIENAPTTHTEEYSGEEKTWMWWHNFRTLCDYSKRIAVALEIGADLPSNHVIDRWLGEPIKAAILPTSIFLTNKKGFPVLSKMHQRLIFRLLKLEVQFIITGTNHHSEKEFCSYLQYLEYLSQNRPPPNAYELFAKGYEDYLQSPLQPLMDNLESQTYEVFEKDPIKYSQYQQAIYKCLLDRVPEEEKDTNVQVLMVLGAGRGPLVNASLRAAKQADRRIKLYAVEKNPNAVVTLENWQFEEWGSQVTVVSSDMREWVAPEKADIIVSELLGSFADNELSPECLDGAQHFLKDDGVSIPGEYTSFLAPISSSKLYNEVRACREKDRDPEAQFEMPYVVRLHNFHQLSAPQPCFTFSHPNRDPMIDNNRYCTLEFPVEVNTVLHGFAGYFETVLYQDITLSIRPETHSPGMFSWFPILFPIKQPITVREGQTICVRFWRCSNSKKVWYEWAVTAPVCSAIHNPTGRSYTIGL
T1 sequence (Q9BQA1 whole entry partner): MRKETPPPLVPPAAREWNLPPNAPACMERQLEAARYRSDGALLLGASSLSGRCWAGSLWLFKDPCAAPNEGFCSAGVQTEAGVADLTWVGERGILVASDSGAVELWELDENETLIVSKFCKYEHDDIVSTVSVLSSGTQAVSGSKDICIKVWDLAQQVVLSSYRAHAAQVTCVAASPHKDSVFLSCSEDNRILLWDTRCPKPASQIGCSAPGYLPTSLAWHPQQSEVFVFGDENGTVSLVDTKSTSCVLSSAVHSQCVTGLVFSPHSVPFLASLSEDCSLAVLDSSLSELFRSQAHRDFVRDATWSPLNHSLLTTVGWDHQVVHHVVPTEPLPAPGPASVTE

Regarding `C[C@@H]1CC[C@@H](c2ccc3[nH]ncc3c2F)N(C(=O)C(=O)Nc2cncc(C(N)=O)c2)C1` (single isomer, unassigned) [Compound 612], the IC50 is 50 to 500 nM on PRMT5 [1]; 50 to 500 nM on PRMT5 [2]; below 50 nM on PRMT5 [3]; above 1000 nM in experiment [4]; below 100 nM in experiment [5]; 1000 to 10000 nM in experiment [6]. The MTAP intact/deleted ratio entry in experiment [5] is recorded as “A (an IC50 ratio greater than or equal to 10 fold)”.
With `C[C@H]1CC[C@H](c2cc(F)cc(Cl)c2)N(C(=O)C(=O)Nc2cncc(C(N)=O)c2)C1` (single isomer, unassigned) [Compound 615], the IC50 on PRMT5 [1] is 50 to 500 nM; on PRMT5 [2], 50 to 500 nM; at PRMT5 [3], below 50 nM; in experiment [4], above 1000 nM; in experiment [5], below 100 nM; in experiment [6], 1000 to 10000 nM. Also, the MTAP intact/deleted ratio entry in experiment [5] is listed as “A (an IC50 ratio greater than or equal to 10 fold)”.
Turning to `Cc1cc(NC(=O)C(=O)N2C[C@H](C)CC[C@H]2c2ccc3sccc3c2)cnc1N` (single isomer, unassigned) [Compound 617], the IC50 at PRMT5 [1] was above 500 nM; at PRMT5 [2], above 500 nM; at PRMT5 [3] it was above 500 nM; in experiment [4] it was above 1000 nM; in experiment [5], 100 to 1000 nM; in experiment [6], above 10000 nM. Further, the MTAP intact/deleted ratio entry in experiment [5] is on record as “A (an IC50 ratio greater than or equal to 10 fold)”.
With `COc1ncc(NC(=O)C(=O)N2C[C@@H](C)CC[C@@H]2c2ccc3sccc3c2)cc1C(N)=O` (single isomer, unassigned) [Compound 618], the IC50 is below 50 nM at PRMT5 [1]; below 50 nM on PRMT5 [2]; below 50 nM on PRMT5 [3]; above 1000 nM in experiment [4]; below 100 nM in experiment [5]; below 1000 nM in experiment [6]. Moreover, the MTAP intact/deleted ratio result in experiment [5] is recorded as “A (an IC50 ratio greater than or equal to 10 fold)”.
On to `Cc1cc(NC(=O)C(=O)N2C[C@@H](C)CC[C@@H]2c2ccc3c(c2)CCC(=O)N3)cnc1C` (single isomer, unassigned) [Compound 619], for which the IC50 is above 500 nM on PRMT5 [1]; above 500 nM on PRMT5 [2]; above 500 nM on PRMT5 [3]; above 1000 nM in experiment [4]; 100 to 1000 nM in experiment [5]; 1000 to 10000 nM in experiment [6]. The MTAP intact/deleted ratio entry in experiment [5] is “A (an IC50 ratio greater than or equal to 10 fold)”.
`Cc1cc(NC(=O)C(=O)N2C[C@@H](C)CC[C@@H]2c2ccc3[nH]ncc3c2)cnc1C` (single isomer, unassigned) [Compound 620]: the IC50 on PRMT5 [1] was 50 to 500 nM; on PRMT5 [2] it was below 50 nM; at PRMT5 [3] it was below 50 nM; in experiment [4] it was 100 to 1000 nM; in experiment [5] it was below 100 nM; in experiment [6] it was below 1000 nM. Also, the MTAP intact/deleted ratio result in experiment [5] is recorded as “A (an IC50 ratio greater than or equal to 10 fold)”.
With `Cc1cc(NC(=O)C(=O)N2C[C@@H](C)CC[C@@H]2c2ccc(NS(C)(=O)=O)cc2)cnc1C` (single isomer, unassigned) [Compound 621], the IC50 on PRMT5 [1] was 50 to 500 nM; on PRMT5 [2], below 50 nM; at PRMT5 [3] it was below 50 nM; in experiment [4] it was 100 to 1000 nM; in experiment [5] it was below 100 nM; in experiment [6] it was 1000 to 10000 nM. The MTAP intact/deleted ratio result in experiment [5] is given as “A (an IC50 ratio greater than or equal to 10 fold)”.
In the case of `C[C@H]1CC[C@@H](c2cc(F)cc(Cl)c2)N(C(=O)C(=O)Nc2cncc(C(N)=O)c2)C1` (single isomer, unassigned) [Compound 624], the IC50 at PRMT5 [1] was above 500 nM; at PRMT5 [2] it was above 500 nM; at PRMT5 [3] it was above 500 nM; in experiment [4], above 1000 nM; in experiment [5] it was above 1000 nM; in experiment [6] it was above 10000 nM. The MTAP intact/deleted ratio result in experiment [5] is “B (an IC50 ratio greater than or equal to 3 fold but lower than 10 fold)”.
In the case of `C[C@@H]1CC[C@H](c2cc(F)cc(Cl)c2)N(C(=O)C(=O)Nc2cncc(C(N)=O)c2)C1` (single isomer, unassigned) [Compound 625], the IC50 on PRMT5 [1] is 50 to 500 nM; on PRMT5 [2], above 500 nM; on PRMT5 [3] it was 50 to 500 nM; in experiment [4] it was above 1000 nM; in experiment [5] it was 100 to 1000 nM; in experiment [6], above 10000 nM. The MTAP intact/deleted ratio entry in experiment [5] is reported as “A (an IC50 ratio greater than or equal to 10 fold)”.
As for `C[C@H]1CC[C@H](c2ccc(-c3cc[nH]n3)cc2)N(C(=O)C(=O)Nc2cncc(C(N)=O)c2)C1` (single isomer, unassigned) [Compound 626], the IC50 was 50 to 500 nM at PRMT5 [1]; 50 to 500 nM at PRMT5 [2]; 50 to 500 nM at PRMT5 [3]; above 1000 nM in experiment [4]; below 100 nM in experiment [5]; 1000 to 10000 nM in experiment [6]. Also, the MTAP intact/deleted ratio entry in experiment [5] is “A (an IC50 ratio greater than or equal to 10 fold)”.
On to `C[C@@H]1CC[C@@H](c2ccc(-c3cc[nH]n3)cc2)N(C(=O)C(=O)Nc2cncc(C(N)=O)c2)C1` (single isomer, unassigned) [Compound 627], for which the IC50 at PRMT5 [1] is above 500 nM; at PRMT5 [2], above 500 nM; on PRMT5 [3], above 500 nM; in experiment [4] it was above 1000 nM; in experiment [5], 100 to 1000 nM; in experiment [6] it was above 10000 nM. In addition, the MTAP intact/deleted ratio result in experiment [5] is “A (an IC50 ratio greater than or equal to 10 fold)”.
As for `Cc1cc(NC(=O)C(=O)N2C[C@H](C)CC[C@H]2c2ccc(-c3cn[nH]c3)cc2)cnc1N` (single isomer, unassigned) [Compound 628], the IC50 on PRMT5 [1] is 50 to 500 nM; on PRMT5 [2] it was below 50 nM; on PRMT5 [3] it was 50 to 500 nM; in experiment [4] it was 100 to 1000 nM; in experiment [5], below 100 nM; in experiment [6] it was below 1000 nM. For the same compound, the MTAP intact/deleted ratio result in experiment [5] is reported as “A (an IC50 ratio greater than or equal to 10 fold)”.
In the case of `Cc1cc(NC(=O)C(=O)N2C[C@@H](C)CC[C@@H]2c2ccc(-c3cn[nH]c3)cc2)cnc1N` (single isomer, unassigned) [Compound 629], the IC50 on PRMT5 [1] is above 500 nM; at PRMT5 [2], above 500 nM; at PRMT5 [3] it was above 500 nM; in experiment [4], above 1000 nM; in experiment [5] it was above 1000 nM; in experiment [6] it was above 10000 nM. Also, the MTAP intact/deleted ratio entry in experiment [5] is “B (an IC50 ratio greater than or equal to 3 fold but lower than 10 fold)”.
In the case of `Cc1cc(NC(=O)C(=O)N2C[C@H](C)CC[C@H]2c2ccc(NS(C)(=O)=O)cc2)cnc1C` (single isomer, unassigned) [Compound 630], the IC50 at PRMT5 [1] is above 500 nM; on PRMT5 [2], above 500 nM; on PRMT5 [3], above 500 nM; in experiment [4] it was above 1000 nM; in experiment [5], 100 to 1000 nM; in experiment [6], above 10000 nM. Further, the MTAP intact/deleted ratio entry in experiment [5] is on record as “A (an IC50 ratio greater than or equal to 10 fold)”.
Turning to `Cc1cc(NC(=O)C(=O)N2C[C@H](C)CC[C@H]2c2ccc3[nH]ncc3c2)cnc1C` (single isomer, unassigned) [Compound 631], the IC50 on PRMT5 [1] was above 500 nM; on PRMT5 [2] it was above 500 nM; at PRMT5 [3] it was above 500 nM; in experiment [4] it was above 1000 nM; in experiment [5] it was above 1000 nM; in experiment [6], above 10000 nM. For the same compound, in experiment [5], the MTAP intact/deleted ratio entry is “C (an IC50 ratio of less than 3 fold)”.
As for `Cc1cc(NC(=O)C(=O)N2C[C@@H](C)CC[C@@H]2c2ccc3sccc3c2)cnc1N` (single isomer, unassigned) [Compound 634], the IC50 at PRMT5 [1] is below 50 nM; at PRMT5 [2], below 50 nM; on PRMT5 [3], below 50 nM; in experiment [4], 100 to 1000 nM; in experiment [5], below 100 nM; in experiment [6], below 1000 nM. The MTAP intact/deleted ratio result in experiment [5] is given as “A (an IC50 ratio greater than or equal to 10 fold)”.
Consider `C[C@H]1CC[C@H](c2ccc3[nH]ncc3c2F)N(C(=O)C(=O)Nc2cncc(C(N)=O)c2)C1` (single isomer, unassigned) [Compound 637], for which the IC50 was above 500 nM at PRMT5 [1]; above 500 nM at PRMT5 [2]; above 500 nM at PRMT5 [3]; above 1000 nM in experiment [4]; 100 to 1000 nM in experiment [5]; above 10000 nM in experiment [6]. Further, the MTAP intact/deleted ratio entry in experiment [5] was “A (an IC50 ratio greater than or equal to 10 fold)”.
Consider `C[C@H]1CC[C@H](c2cc(Cl)cc(C(F)(F)F)c2)N(C(=O)C(=O)Nc2cncc(C(N)=O)c2)C1` (single isomer, unassigned) [Compound 646], for which the IC50 on PRMT5 [1] was below 50 nM; on PRMT5 [2], 50 to 500 nM; at PRMT5 [3], below 50 nM; in experiment [4] it was above 1000 nM; in experiment [5] it was 100 to 1000 nM; in experiment [6] it was 1000 to 10000 nM. In experiment [5], the MTAP intact/deleted ratio entry is recorded as “A (an IC50 ratio greater than or equal to 10 fold)”.
